{"source": "patent EP4755888A1", "about": "(ILAb Co., Ltd., priority 2023, dated 2025)", "data": [{"molecular_target": "PD-1/PD-L1 (Homo sapiens, UniProt Q9NZQ7)", "sequence (Q9NZQ7 19-238 limits assumed)": "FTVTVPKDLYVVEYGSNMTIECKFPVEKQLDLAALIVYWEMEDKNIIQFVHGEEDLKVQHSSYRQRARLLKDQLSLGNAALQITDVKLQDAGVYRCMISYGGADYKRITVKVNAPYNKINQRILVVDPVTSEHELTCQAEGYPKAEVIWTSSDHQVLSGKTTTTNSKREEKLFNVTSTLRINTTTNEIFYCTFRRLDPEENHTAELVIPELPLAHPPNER", "experiment": "TR-FRET PD-1/PD-L1 binding inhibition at the molecular level (free proteins)", "details": "Tag1-PD-L1 and Tag2-PD-1 proteins, twelve concentrations from 200 nM, 2 hours at room temperature, read-out: FRET assay (IC50)", "outline": "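HTRF read-out at 665/620 nm after 2 h at room temperature. Detection used anti-Tag1 Eu cryptate plus anti-Tag2 XL665 antibodies. Tagged PD-L1 and PD-1 proteins were pre-mixed with compound across twelve […] 1:2 dilutions starting at 200 nM.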", "units": {"IC50": "nM"}, "values": [{"smiles": "O=C(Nc1cccc(-c2cccc(Nc3nccc4cc(CN5CC[C@@H](O)C5)cnc34)c2Cl)c1Cl)c1cc2n(n1)CCCC2NC1CCC(O)CC1", "note": "(stereo partly drawn) [Compound 233, N-(2,2'-dichloro-3'-((3-(((R)-3-hydroxypyrrolidin-1-yl)methyl)-1,7-naphthyridin-8-yl)amino)-[1,1'-biphenyl]-3-yl)-4-((4-hydroxycyclohexyl)amino)-4,5,6,7-tetrahydropyrazolo[1,5-a]pyridine-2-carboxamideide]", "IC50": "10 to 100"}, {"smiles": "COCCNC1CCCn2nc(C(=O)Nc3cccc(-c4cccc(Nc5nccc6cc(CN7CC[C@@H](O)C7)cnc56)c4Cl)c3Cl)cc21", "note": "(stereo partly drawn) [Compound 234, N-(2,2'-dichloro-3'-((3-(((R)-3-hydroxypyrrolidin-1-yl)methyl)-1,7-naphthyridin-8-yl)amino)-[1,1'-biphenyl]-3-yl)-4-((2-methoxyethyl)amino)-4,5,6,7-tetrahydropyrazolo[1,5-a]pyridine-2-carboxamide]", "IC50": "10 to 100"}, {"smiles": "CS(=O)(=O)NCCNC1CCCn2nc(C(=O)Nc3cccc(-c4cccc(Nc5nccc6cc(CN7CC[C@@H](O)C7)cnc56)c4Cl)c3Cl)cc21", "note": "(stereo partly drawn) [Compound 235, N-(2,2'-dichloro-3'-((3-(((R)-3-hydroxypyrrolidin-1-yl)methyl)-1,7-naphthyridin-8-yl)amino)-[1,1'-biphenyl]-3-yl)-4-((2-(methylsulfonamido)ethyl)amino)-4,5,6,7-tetrahydropyrazolo[1,5-a]pyridine-2-carboxamide]", "IC50": "10 to 100"}, {"smiles": "CC(=O)N1CC2(C1)CN(C1CCCn3nc(C(=O)Nc4cccc(-c5cccc(Nc6nccc7cc(CN8CC[C@@H](O)C8)cnc67)c5Cl)c4Cl)cc31)C2", "note": "(stereo partly drawn) [Compound 236, 4-(6-acetyl-2,6-diazaspiro[3.3]heptan-2-yl)-N-(2,2'-dichloro-3'-((3-(((R)-3-hydroxypyrrolidin-1-yl)methyl)-1,7-naphthyridin-8-yl)amino)-[1,1'-biphenyl]-3-yl)-4,5,6,7-tetrahydropyrazolo[1,5-a]pyridine-2-carboxamide]", "IC50": "10 to 100"}, {"smiles": "CC(C)(O)C1CN(C2CCCn3nc(C(=O)Nc4cccc(-c5cccc(Nc6nccc7cc(CN8CC[C@@H](O)C8)cnc67)c5Cl)c4Cl)cc32)C1", "note": "(stereo partly drawn) [Compound 237, N-(2,2'-dichloro-3'-((3-(((R)-3-hydroxypyrrolidin-1-yl)methyl)-1,7-naphthyridin-8-yl)amino)-[1,1'-biphenyl]-3-yl)-4-(3-(2-hydroxypropan-2-yl)azetidin-1-yl)-4,5,6,7-tetrahydropyrazolo[1,5-a]pyridine-2-carboxamide]", "IC50": "10 to 100"}, {"smiles": "O=C1CCC2(CN(C3CCCn4nc(C(=O)Nc5cccc(-c6cccc(Nc7nccc8cc(CN9CC[C@@H](O)C9)cnc78)c6Cl)c5Cl)cc43)C2)N1", "note": "(stereo partly drawn) [Compound 238, N-(2,2'-dichloro-3'-((3-(((R)-3-hydroxypyrrolidin-1-yl)methyl)-1,7-naphthyridin-8-yl)amino)-[1,1'-biphenyl]-3-yl)-4-(6-oxo-2,5-diazaspiro[3.4]octan-2-yl)-4,5,6,7-tetrahydropyrazolo[1,5-a]pyridine-2-carboxamide]", "IC50": "10 to 100"}, {"smiles": "O=C(O)CCCNC1CCCn2nc(C(=O)Nc3cccc(-c4cccc(Nc5nccc6cc(CN7CC[C@@H](O)C7)cnc56)c4Cl)c3Cl)cc21", "note": "(stereo partly drawn) [Compound 239, 4-((2-((2,2'-dichloro-3'-((3-(((R)-3-hydroxypyrrolidin-1-yl)methyl)-1,7-naphthyridin-8-yl)amino)-[1,1'-biphenyl]-3-yl)carbamoyl)-4,5,6,7-tetrahydropyrazolo[1,5-a]pyridin-4-yl)amino)butanoic acid]", "IC50": "10 to 100"}, {"smiles": "O=C(Nc1cccc(-c2cccc(Nc3nccc4cc(CN5CC[C@@H](O)C5)cnc34)c2Cl)c1Cl)c1cc2n(n1)CCCC2N1CCCC1=O", "note": "(stereo partly drawn) [Compound 240, N-(2,2'-dichloro-3'-((3-(((R)-3-hydroxypyrrolidin-1-yl)methyl)-1,7-naphthyridin-8-yl)amino)-[1,1'-biphenyl]-3-yl)-4-(2-oxopyrrolidin-1-yl)-4,5,6,7-tetrahydropyrazolo[1,5-a]pyridine-2-carboxamide]", "IC50": "10 to 100"}, {"smiles": "CC(=O)NCCN[C@H]1CCCn2nc(C(=O)Nc3cccc(-c4cccc(NC(=O)c5ccc(CNCCO)cn5)c4Cl)c3Cl)cc21", "note": "[Compound 241, (S)-4-((2-acetamidoethyl)amino)-N-(2,2'-dichloro-3'-(5-(((2-hydroxyethyl)amino)methyl)picolinamido)-[1,1'-biphenyl]-3-yl)-4,5,6,7-tetrahydropyrazolo[1,5-a]pyridine-2-carboxamide]", "IC50": "< 10"}, {"smiles": "CC(=O)NCCN[C@@H]1CCCn2nc(C(=O)Nc3cccc(-c4cccc(NC(=O)c5ccc(CNCCO)cn5)c4Cl)c3Cl)cc21", "note": "[Compound 242, (R)-4-((2-acetamidoethyl)amino)-N-(2,2'-dichloro-3'-(5-(((2-hydroxyethyl)amino)methyl)picolinamido)-[1,1'-biphenyl]-3-yl)-4,5,6,7-tetrahydropyrazolo[1,5-a]pyridine-2-carboxamide]", "IC50": "< 10"}, {"smiles": "O=C(Nc1cccc(-c2cccc(NC(=O)c3cc4n(n3)CCC[C@@H]4N3CC[C@@H](O)C3)c2Cl)c1Cl)c1ccc(CNCCO)cn1", "note": "[Compound 243, (S)-N-(2,2'-dichloro-3'-(5-(((2-hydroxyethyl)amino)methyl)picolinamido)-[1,1'-biphenyl]-3-yl)-4-((R)-3-hydroxypyrrolidin-1-yl)-4,5,6,7-tetrahydropyrazolo[1,5-a]pyridine-2-carboxamide]", "IC50": "< 10"}, {"smiles": "O=C(Nc1cccc(-c2cccc(NC(=O)c3cc4n(n3)CCC[C@H]4N3CC[C@@H](O)C3)c2Cl)c1Cl)c1ccc(CNCCO)cn1", "note": "[Compound 244, (R)-N-(2,2'-dichloro-3'-(5-(((2-hydroxyethyl)amino)methyl)picolinamido)-[1,1'-biphenyl]-3-yl)-4-((R)-3-hydroxypyrrolidin-1-yl)-4,5,6,7-tetrahydropyrazolo[1,5-a]pyridine-2-carboxamide]", "IC50": "< 10"}, {"smiles": "COc1cc(-c2cccc(-c3cccc(NC(=O)c4cc5n(n4)CCC[C@@H]5NCC(=O)O)c3Cl)c2Cl)cc(F)c1CNCCO", "note": "[Compound 245, (S)-2-((2-((2,2'-dichloro-3\"-fluoro-4\"-(((2-hydroxyethyl)amino)methyl)-5\"-methoxy-[1,1':3',1\"-terphenyl]-3-yl)carbamoyl)-4,5,6,7-tetrahydropyrazolo[1,5-a]pyridin-4-yl)amino)acetic acid]", "IC50": "< 10"}, {"smiles": "COc1cc(-c2cccc(-c3cccc(NC(=O)c4cc5n(n4)CCC[C@H]5NCC(=O)O)c3Cl)c2Cl)cc(F)c1CNCCO", "note": "[Compound 246, (R)-2-((2-((2,2'-dichloro-3\"-fluoro-4\"-(((2-hydroxyethyl)amino)methyl)-5\"-methoxy-[1,1':3',1\"-terphenyl]-3-yl)carbamoyl)-4,5,6,7-tetrahydropyrazolo[1,5-a]pyridin-4-yl)amino)acetic acid]", "IC50": "< 10"}, {"smiles": "COc1cc(-c2cccc(-c3cccc(NC(=O)c4cc5n(n4)CCC[C@@H]5NCC(=O)O)c3Cl)c2Cl)cc(F)c1CN1CC[C@@H](O)C1", "note": "[Compound 247, 2-(((S)-2-((2,2'-dichloro-3\"-fluoro-4\"-(((R)-3-hydroxypyrrolidin-1-yl)methyl)-5\"-methoxy-[1,1':3',1\"-terphenyl]-3-yl)carbamoyl)-4,5,6,7-tetrahydropyrazolo[1,5-a]pyridin-4-yl)amino)acetic acid]", "IC50": "< 10"}, {"smiles": "COc1cc(-c2cccc(-c3cccc(NC(=O)c4cc5n(n4)CCC[C@H]5NCC(=O)O)c3Cl)c2Cl)cc(F)c1CN1CC[C@@H](O)C1", "note": "[Compound 248, 2-(((R)-2-((2,2'-dichloro-3\"-fluoro-4\"-(((R)-3-hydroxypyrrolidin-1-yl)methyl)-5\"-methoxy-[1,1':3',1\"-terphenyl]-3-yl)carbamoyl)-4,5,6,7-tetrahydropyrazolo[1,5-a]pyridin-4-yl)amino)acetic acid]", "IC50": "< 10"}, {"smiles": "COc1cc(-c2cccc(-c3cccc(NC(=O)c4cc5n(n4)CCC[C@@H]5NCC(=O)O)c3Cl)c2Cl)cc(F)c1CNC[C@@H]1CCC(=O)N1", "note": "[Compound 249, 2-(((S)-2-((2,2'-dichloro-3\"-fluoro-5\"-methoxy-4\"-(((((S)-5-oxopyrrolidin-2-yl)methyl)amino)methyl)-[1,1':3',1\"-terphenyl]-3-yl)carbamoyl)-4,5,6,7-tetrahydropyrazolo[1,5-a]pyridin-4-yl)amino)acetic acid]", "IC50": "10 to 100"}, {"smiles": "COc1cc(-c2cccc(-c3cccc(NC(=O)c4cc5n(n4)CCC[C@H]5NCC(=O)O)c3Cl)c2Cl)cc(F)c1CNC[C@@H]1CCC(=O)N1", "note": "[Compound 250, 2-(((R)-2-((2,2'-dichloro-3\"-fluoro-5\"-methoxy-4\"-(((((S)-5-oxopyrrolidin-2-yl)methyl)amino)methyl)-[1,1':3',1 \"-terphenyl]-3-yl)carbamoyl)-4,5,6,7-tetrahydropyrazolo[1,5-a]pyridin-4-yl)amino)acetic acid]", "IC50": "10 to 100"}, {"smiles": "Cc1c(NC(=O)c2cc3n(n2)CCC[C@@H]3NCCO)cccc1-c1cccc(NC(=O)c2cc3n(n2)CCC[C@@H]3NCCO)c1C", "note": "[Compound 253, (4S,4'S)-N,N'-(2,2'-dimethyl-[1,1'-biphenyl]-3,3'-diyl)bis(4-((2-hydroxyethyl)amino)-4,5,6,7-tetrahydropyrazolo[1,5-a]pyridine-2-carboxamide)]", "IC50": "< 10"}, {"smiles": "Cc1nc(Nc2cccc(-c3cccc(NC(=O)c4cc5n(n4)CCC[C@@H]5N4CCC(C(=O)O)CC4)c3Cl)c2Cl)c2ncccc2n1", "note": "[Compound 254, (S)-1-(2-((2,2'-dichloro-3'-((2-methylpyrido[3,2-d]pyrimidin-4-yl)amino)-[1,1'-biphenyl]-3-yl)carbamoyl)-4,5,6,7-tetrahydropyrazolo[1,5-a]pyridin-4-yl)piperidine-4-carboxylic acid]", "IC50": "10 to 100"}, {"smiles": "Cc1nc(Nc2cccc(-c3cccc(NC(=O)c4cc5n(n4)CCC[C@H]5N4CCC(C(=O)O)CC4)c3Cl)c2Cl)c2ncccc2n1", "note": "[Compound 255, (R)-1-(2-((2,2'-dichloro-3'-((2-methylpyrido[3,2-d]pyrimidin-4-yl)amino)-[1,1'-biphenyl]-3-yl)carbamoyl)-4,5,6,7-tetrahydropyrazolo[1,5-a]pyridin-4-yl)piperidine-4-carboxylic acid]", "IC50": "10 to 100"}]}]}
